This is an account of results in patent US10654834B2 (Venenum Biodesign, LLC, priority 2016, dated 2020).

The assay has as its target T1, mouse TGR5 receptor (Mus musculus, UniProt Q80SS6).
T1 construct: host or cells: HEK293-EBNA (293 c18, ATCC CRL10852)
T1 sequence (Q80SS6 1-329): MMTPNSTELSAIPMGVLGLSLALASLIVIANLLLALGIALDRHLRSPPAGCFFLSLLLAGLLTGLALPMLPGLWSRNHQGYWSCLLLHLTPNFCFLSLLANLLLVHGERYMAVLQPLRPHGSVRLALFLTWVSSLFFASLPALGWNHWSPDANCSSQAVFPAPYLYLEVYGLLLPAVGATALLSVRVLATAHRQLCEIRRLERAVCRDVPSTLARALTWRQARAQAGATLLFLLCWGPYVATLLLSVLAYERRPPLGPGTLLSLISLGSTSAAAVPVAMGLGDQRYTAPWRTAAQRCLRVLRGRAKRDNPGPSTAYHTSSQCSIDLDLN
The experiment in a line: Mouse TGR5 luminescent cAMP production assay (HEK293-EBNA cells, DiscoveRx cAMP XS+ kit). The assay is classed as cell-based. The note with it: HEK293-EBNA cells overexpressing mouse TGR5, luminescent cAMP assay; read-out: Mouse TGR5 Lum. cAMP Activity (EC50). The method in brief:
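HEK293-EBNA cells stably expressing mouse TGR5, resuspended in serum-free DMEM with 500 μM IBMX, were premixed 20 min with cAMP antibody, then exposed to half-log compound dilutions for 1 h at room temperature. cAMP was read by luminescent enzyme-fragment complementation (cAMP XS+) after overnight incubation; EC50 derived.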
Background: Changes in cAMP serve as a functional read-out for many G protein-coupled receptors.

Structures are written as SMILES.

Regarding `N#Cc1ccc(CCNC(=O)[C@@H]2CCCN2c2cc(N3CCC(CO)CC3)nc(C(F)(F)F)n2)cc1` [Compound 1, (S)—N-(4-cyanophenethyl)-1-(6-(4-(hydroxymethyl)piperidin-1-yl)-2-(trifluoromethyl)pyrimidin-4-yl)pyrrolidine-2-carboxamide], the EC50 (in general, the concentration needed to bring the measured effect to its halfway point) is < 100 nM.
